In patent US20100222421A1, “Usage of Baicalein in the Preparation of a Pharmaceutical Composition for the Treatment of Traumatic Brain Injury” (National Defense Medical Center, priority 2009, published 2010):

Assays:
[1] = system: rats with controlled cortical impact (CCI) injury; assay: Tactile adhesive-removal somatosensory test after CCI injury; assay type: in vivo, rat; conditions: P<0.05; for adhesive-removal times versus vehicle-treated rats: days 1, 4 and 7
Procedure: A previously described CCI injury procedure was utilized (Chen et al., 2003). Male Sprague-Dawley rats, which have body weight of 250-300 g, were anaesthetized with sodium pentobarbital (i.p.; 50 mgkg^−1; Rhone Merieux, Harlow, UK) and placed in a stereotaxic frame. A 5-mm craniotomy was performed over the left parietal cortex, centered on the coronal suture and 3 mm lateral to the sagittal suture. Considerable care was taken to avoid injury to the underlying dura. Injury was made using a pneumatic piston with a rounded metal tip (2.5 mm diameter) that was angled 22.5° C. to the vertical so that the tip was perpendicular with the brain surface at the centre of the craniotomy. A velocity of 4 ms^−1 and a deformation depth 2 mm below the dura were used. The bone flap was immediately replaced and sealed, and the scalp was closed with sutures. Body temperature was monitored throughout the surgery by a rectal probe; temperature was maintained at 37.0±0.5° C. using a heated pad. Rats were placed in a heated cage to maintain body temperature, while recovering from anaesthesia. Baicalein (30 mg kg^−1) dissolved in 10% dimethyl sulphoxide (0.25-0.3 mL) or a corresponding volume of vehicle (10% dimethyl sulphoxide) was administered i.p. immediately following injury or daily for 4 days (immediately, 25, 49 and 73 h) after injury. Behaviour testing using the rotarod, tactile adhesive removal, mNSS and beam walk tests was performed at 28 hours as well as 4, 7, 14, 21 and 28 days post-injury. At 14 and 28 days, the animals were killed, perfused intravascularly and their brains were processed with cresyl violet staining to assess contusion volume (n=8 for each group). […] Behaviour testing was performed before CCI and at […] after CCI by an observer who was unaware of the experimental treatments. […] The time required for each rat to remove adhesive from the forelimb was recorded for five trials per day. […] One hour before CCI, mean latency (in seconds) over five trials to remove the contralateral (right) adhesive was recorded as the pre-injury baseline value.

TNF-α protein = assay: ELISA, TNF-α protein after CCI injury; assay type: in vivo, rat; conditions: single-dose 30 mg kg^-1 i.p.; ipsilateral cortex, 1 day post-injury; P<0.05
Procedure: A previously described CCI injury procedure was utilized (Chen et al., 2003). Male Sprague-Dawley rats, which have body weight of 250-300 g, were anaesthetized with sodium pentobarbital (i.p.; 50 mgkg^−1; Rhone Merieux, Harlow, UK) and placed in a stereotaxic frame. A 5-mm craniotomy was performed over the left parietal cortex, centered on the coronal suture and 3 mm lateral to the sagittal suture. Considerable care was taken to avoid injury to the underlying dura. Injury was made using a pneumatic piston with a rounded metal tip (2.5 mm diameter) that was angled 22.5° C. to the vertical so that the tip was perpendicular with the brain surface at the centre of the craniotomy. A velocity of 4 ms^−1 and a deformation depth 2 mm below the dura were used. […] Body temperature was monitored throughout the surgery by a rectal probe; temperature was maintained at 37.0±0.5° C. using a heated pad. […]
Single-dose baicalein (30 mg kg^−1) or a corresponding volume of vehicle was administered i.p. immediately following injury. […] Testing after injury was as follows: (1) real-time quantitative RT-PCR analysis for TNF-α, IL-1β and IL-6 mRNA expression at 6 h post-injury (n=7 for each group); (2) FluoroJade B (FJB) staining, TNF-α, IL-1β and IL-6 immunohistochemistry, as well as ELISA at 24 h post-injury to assess degenerative neurons and to determine cytokine expression (n=7 for each group). […]

## O=c1cc(-c2ccccc2)oc2cc(O)c(O)c(O)c12 [baicalein]
[1]; 30 mg kg^-1 i.p., only on day 7 after injury
  adhesive-removal times, multiple doses versus single dose: significantly lower
[1]; multiple-dose 30 mg kg^-1 i.p. daily for 4 days
  adhesive-removal times versus vehicle-treated rats: significantly lower
[1]; single-dose 30 mg kg^-1 i.p.
  adhesive-removal times versus vehicle-treated rats: significantly lower
TNF-α protein
  TNF-α protein concentration, % of concentration in vehicle-treated rats: 54%
